What was measured:
[1] = target: T1, human type I collagen (Homo sapiens, UniProt P02452+P08123); assay: Collagen binding assay, dried human collagen in microtiter plate; settings: 37° C., pH 7.4
T1 construct: purchased Advanced Biomatrix 5007-A
Description: 10 ml of a solution of 3 mg/ml of human type I collagen (VitroCol solution, Advanced Biomatrix, cat#5007-A) is dialyzed against 10 mM Phosphate (NaH2PO4), pH 4.2 at 4° C. with three changes of the dialysis buffer. The protein concentration is determined by liquid chromatography determination of hydroxyproline (P. Hutson, J. Chromatogr. B, 791 (2003) 427-430).
Ice-cold 1×PBS pH 10.8 is added to the collagen solution for a final collagen concentration of 10 μM, pH 7.4. Collagen solutions are gelled and dried down in the wells of a 96 well microtiter plate (Corning Polystyrene Flat Bottom, cat#3641). […] The final well content of gelled collagen is measured by determination of hydroxyproline and is around 180 μg/ml.
a serial dilution of 0.2 μM-30 μM of the peptide chelate is prepared in PBS, pH 7.4 ([…], of solution for each concentration). […] The concentration of free, unbound compound in the sample supernatants and the concentration of compound in the reserved (total) sample are determined by ICP-MS (Agilent 7500, gadolinium concentration). The concentration of compound bound to collagen is determined as [bound]=[total]−[unbound].
The binding of compounds to human, rat and dog collagen (5 μM) was measured over the concentration range 0.2-5 μM of Comp ID Nos.: 1-4. […]

[2] = system: myocardium; type: in vivo; settings: Compound ID No. 1 7.5 μmol/kg (canine) vs EP-3600 12.3 μmol/kg (pig)
Description: To mimic severe ischemia, a canine model was used in which an inflatable variable vascular occluder was placed around the left anterior descending coronary artery (LAD) to allow occlusion and reperfusion. Imaging was performed on a 3T clinical scanner 4 days after implantation of the occluder. The conventional saturation recovery pulse sequence for stress perfusion imaging was compared with a segmented inversion method. The purpose of the segmented inversion method was to leverage the steady-state properties of Compound ID No. 1. This segmented inversion recovery pulse sequence provides greater T1 weighting, higher spatial resolution, and greater myocardial tissue contrast. Additionally, since imaging is delayed, the entire heart can be imaged. After baseline […] scanning, the balloon was inflated. […]
To assess relative perfusion, labeled microspheres were administered at 3 timepoints in the study. […] At autopsy under ultraviolet light, the hypo-perfused myocardium was differentiated from normal myocardium due to the lack of fluorescence in the hypo-perfused tissue. Based on the fluorescence, a sample of the ischemic territory and a sample of the remote myocardium were taken for ex vivo analysis. These tissue samples were weighed, digested in nitric acid, and analyzed for the elements La, Au, Lu (the three microsphere injections) and gadolinium (Compound ID No. 1) using ICP-MS. […]

[3] = system: liver fibrosis; assay: Detection of liver fibrosis by MRI, mouse CCl4 model; type: in vivo, C57BL/6 male mice; settings: 10 μmol/kg i.v., out to 45 minutes, 7T
Description: Strain C57BL/6 male mice at approximately 3 weeks of age were purchased from Jackson Laboratory (Bar Harbor, Me.). All mice were randomly assigned to two groups: a control group (n=3) and a CCl4 group (n=8). Mice were treated three times a week for 10 weeks with either 0.04 mL of a 40 percent solution of CCl4 (Sigma, St. Louis, Mo.) in olive oil or with vehicle (olive oil only) by oral gavage. Animals from both models were imaged one week after the last injection. Mice were imaged on a 7T pre-clinical […] scanner (Bruker Biospin, Billerica, Mass.). Mice were imaged before and immediately after a 10 μmol/kg intravenous injection of COMPOUND ID NO. 1 and imaging was repeated out to 45 minutes post-injection. Following imaging, animals were sacrificed 50 min post COMPOUND ID NO. 1 injection and sections of each of the liver lobes were taken for gadolinium analysis by ICP-MS, hydroxyproline (Hyp) determination, and histology (Sirius Red staining). From the MRI data, the contrast to noise ratio (CNR, where CNR=(signal liver-signal muscle)/noise) was calculated for the liver before and at repeated time points after 10 μmol/kg injection of the COMPOUND ID NO. 1. After probe COMPOUND ID NO. […] Plots of CNR as a function of time post injection were made and the area under this CNR vs time curve was calculated. […] 1 in liver as assessed by gadolinium measurement (R^2=0.83). […]

T1 sequence (P02452 162-1218 limits assumed): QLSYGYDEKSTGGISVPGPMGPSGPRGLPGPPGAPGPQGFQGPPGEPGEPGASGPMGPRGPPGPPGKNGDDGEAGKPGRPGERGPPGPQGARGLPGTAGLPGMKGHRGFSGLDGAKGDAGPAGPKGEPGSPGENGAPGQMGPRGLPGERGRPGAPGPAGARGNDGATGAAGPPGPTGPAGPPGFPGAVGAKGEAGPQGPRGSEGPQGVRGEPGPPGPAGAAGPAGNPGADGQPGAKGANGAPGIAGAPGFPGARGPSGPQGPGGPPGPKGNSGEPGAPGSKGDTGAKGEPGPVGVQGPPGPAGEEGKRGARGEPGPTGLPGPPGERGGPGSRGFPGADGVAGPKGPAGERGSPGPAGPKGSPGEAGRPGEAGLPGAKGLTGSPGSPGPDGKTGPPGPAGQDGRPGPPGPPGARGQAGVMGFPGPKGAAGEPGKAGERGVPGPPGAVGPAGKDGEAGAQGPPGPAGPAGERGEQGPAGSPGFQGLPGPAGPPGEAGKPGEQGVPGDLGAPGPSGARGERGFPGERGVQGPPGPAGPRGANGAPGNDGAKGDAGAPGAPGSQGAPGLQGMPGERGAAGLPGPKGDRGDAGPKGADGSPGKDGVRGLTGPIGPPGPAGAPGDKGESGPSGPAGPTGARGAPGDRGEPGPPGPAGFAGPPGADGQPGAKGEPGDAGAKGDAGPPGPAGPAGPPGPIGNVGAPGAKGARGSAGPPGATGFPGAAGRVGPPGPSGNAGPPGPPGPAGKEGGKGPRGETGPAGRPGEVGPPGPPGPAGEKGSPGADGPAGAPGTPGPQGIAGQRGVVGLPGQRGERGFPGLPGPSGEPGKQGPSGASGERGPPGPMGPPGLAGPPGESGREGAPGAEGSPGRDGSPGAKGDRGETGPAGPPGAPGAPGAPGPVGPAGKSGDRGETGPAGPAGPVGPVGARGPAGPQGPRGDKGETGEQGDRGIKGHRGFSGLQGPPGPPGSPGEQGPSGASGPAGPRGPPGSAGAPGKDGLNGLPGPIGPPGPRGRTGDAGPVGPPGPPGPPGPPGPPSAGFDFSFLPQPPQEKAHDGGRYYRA
T1 sequence (P08123 80-1119 limits assumed): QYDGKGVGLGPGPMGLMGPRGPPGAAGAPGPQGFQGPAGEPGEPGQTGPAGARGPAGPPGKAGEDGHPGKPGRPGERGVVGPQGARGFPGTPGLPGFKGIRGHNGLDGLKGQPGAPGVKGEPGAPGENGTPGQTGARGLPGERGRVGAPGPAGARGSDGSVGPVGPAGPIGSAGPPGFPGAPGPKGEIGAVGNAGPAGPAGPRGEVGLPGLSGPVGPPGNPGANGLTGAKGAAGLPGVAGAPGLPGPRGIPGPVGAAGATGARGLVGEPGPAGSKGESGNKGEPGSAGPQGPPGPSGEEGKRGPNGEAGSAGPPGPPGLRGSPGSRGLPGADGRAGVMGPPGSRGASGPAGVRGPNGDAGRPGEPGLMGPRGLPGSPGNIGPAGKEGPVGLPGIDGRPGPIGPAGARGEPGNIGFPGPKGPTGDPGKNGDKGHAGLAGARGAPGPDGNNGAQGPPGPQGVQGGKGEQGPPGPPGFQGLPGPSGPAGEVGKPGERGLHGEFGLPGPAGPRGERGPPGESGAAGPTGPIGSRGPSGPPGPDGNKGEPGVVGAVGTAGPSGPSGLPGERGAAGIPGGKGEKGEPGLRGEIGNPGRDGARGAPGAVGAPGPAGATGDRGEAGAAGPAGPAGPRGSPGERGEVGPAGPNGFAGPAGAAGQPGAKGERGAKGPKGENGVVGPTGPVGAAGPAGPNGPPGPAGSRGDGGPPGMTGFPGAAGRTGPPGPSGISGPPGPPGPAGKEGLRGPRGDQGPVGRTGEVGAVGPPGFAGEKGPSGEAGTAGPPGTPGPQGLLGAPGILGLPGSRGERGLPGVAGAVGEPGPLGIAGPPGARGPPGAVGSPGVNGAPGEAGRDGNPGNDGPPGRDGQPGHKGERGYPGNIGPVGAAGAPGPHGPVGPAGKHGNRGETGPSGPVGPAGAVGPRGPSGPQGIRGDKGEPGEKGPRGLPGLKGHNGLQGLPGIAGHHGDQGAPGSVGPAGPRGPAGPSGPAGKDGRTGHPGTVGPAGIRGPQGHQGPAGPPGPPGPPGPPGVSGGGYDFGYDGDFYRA

Kd [1]: 3.8 µM
SMILES: CC(C)C[C@H](NC(=O)[C@@H]1CSSC[C@H](NC(=O)[C@H](Cc2c[nH]cn2)NC(=O)[C@H](Cc2c[nH]c3ccccc23)NC(=O)[C@H](CCCCNC(=O)CC[C@H](C(=O)O)N2CCN(CC(=O)O)CCN(CC(=O)O)CCN(CC(=O)O)CC2)NC(=O)CNC(=O)CC[C@H](C(=O)O)N2CCN(CC(=O)O)CCN(CC(=O)O)CCN(CC(=O)O)CC2)C(=O)N[C@@H]([C@@H](C)O)C(=O)N[C@@H]([C@@H](C)O)C(=O)N[C@@H](CCCCNC(=O)CC[C@H](C(=O)O)N2CCN(CC(=O)O)CCN(CC(=O)O)CCN(CC(=O)O)CC2)C(=O)N[C@@H](Cc2ccccc2)C(=O)N2CCC[C@H]2C(=O)N[C@@H](Cc2c[nH]cn2)C(=O)N[C@@H](Cc2c[nH]cn2)C(=O)N[C@@H](Cc2ccc(O)cc2)C(=O)N1)C(=O)N[C@@H](Cc1ccc(O)cc1)C(=O)N[C@@H](Cc1ccc(-c2ccccc2)cc1)C(N)=O [Compound ID No. 1]
ΔCNR relative to EP-3600 (fold higher) [2]: 3 to 4 fold | area under the CNR vs time curve (liver) ([3]; CCl4 treated mice): 1447±192 | area under the CNR vs time curve (liver) ([3]; vehicle (olive oil) treated control mice given the probe): 889±173

Reference: patent US20180185520A1, “COLLAGEN IMAGING COMPOSTIONS” (Collagen Medical, LLC, priority 2015, published 2018)
